Measurements reported in patent publication US20230081390A1, “INHIBITORS OF RAF KINASES” (Kinnate Biopharma Inc., priority 2019, published 2023).

Legend:
[1] = biological target: human BRAF (Homo sapiens, UniProt P15056); assay: Protein kinase assay (33P-ATP filter binding), human BRAF, 10-dose IC50; format: biochemical; settings: MEK1 (K97R) substrate 1 micromolar, ATP 25 micromolar, read-out: B-RAF IC50
Procedure: Protein kinase assay: Assay platform was used to measure kinase/inhibitor interactions as described previously (Anastassiadis et al., 2011). In brief, for each reaction, kinase and substrate were mixed in a buffer containing 20 mM HEPES (pH 7.5), 10 mM MgCl2, 1 mM EGTA, 0.02% Brij35, 0.02 mg/mL BSA, 0.1 mM Na3VO4, 2 mM DTT, and […]. All compounds were solubilized in DMSO. Compounds were then added to each reaction mixture via acoustic dispense using an ECHO 550 nanoliter dispenser. For human RAF1 testing, human MEK1 (K97R) was used as a substrate at a concentration of 3 micromolar, with a final ATP concentration of 10 micromolar. For human BRAF testing, human MEK1 (K97R) was used as a substrate at 1 micromolar concentration, with a final ATP concentration of 25 micromolar. […] After a 20-min incubation, ATP (Sigma-Aldrich, St. Louis, Mo. 63178) and [g33P] ATP (specific activity 10 microCi/microliter) purchased at PerkinElmer (Boston, Mass., 02118 Cat #BLU 003H250UC) were added at a final total concentration of […]. Reactions were carried out at room temperature for 2 hr and spotted onto P81 ion exchange cellulose chromatography paper (Reaction Biology). Filter paper was washed in 0.75% phosphoric acid to remove unincorporated ATP. The percent remaining kinase activity relative to a vehicle-containing (DMSO) kinase reaction was calculated for each kinase/inhibitor pair. IC50 values were calculated using Prism 5 (GraphPad).

[2] = biological target: human RAF1 (Homo sapiens, UniProt P04049); assay: Protein kinase assay (33P-ATP filter binding), human RAF1, 10-dose IC50; format: biochemical; settings: MEK1 (K97R) substrate 3 micromolar, ATP 10 micromolar, read-out: RAF-1 IC50
Summary of the method: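 Radiometric filter-binding format: 10 µM ATP, 3 µM MEK1 (K97R) as substrate for human RAF1, 2 hr at room temperature in 20 mM HEPES pH 7.5 with 10 mM MgCl2. Compounds were dispensed acoustically from DMSO. IC50 came from percent kinase activity relative to vehicle over a 10-dose series.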

Sequence of human RAF1 (P04049 whole entry): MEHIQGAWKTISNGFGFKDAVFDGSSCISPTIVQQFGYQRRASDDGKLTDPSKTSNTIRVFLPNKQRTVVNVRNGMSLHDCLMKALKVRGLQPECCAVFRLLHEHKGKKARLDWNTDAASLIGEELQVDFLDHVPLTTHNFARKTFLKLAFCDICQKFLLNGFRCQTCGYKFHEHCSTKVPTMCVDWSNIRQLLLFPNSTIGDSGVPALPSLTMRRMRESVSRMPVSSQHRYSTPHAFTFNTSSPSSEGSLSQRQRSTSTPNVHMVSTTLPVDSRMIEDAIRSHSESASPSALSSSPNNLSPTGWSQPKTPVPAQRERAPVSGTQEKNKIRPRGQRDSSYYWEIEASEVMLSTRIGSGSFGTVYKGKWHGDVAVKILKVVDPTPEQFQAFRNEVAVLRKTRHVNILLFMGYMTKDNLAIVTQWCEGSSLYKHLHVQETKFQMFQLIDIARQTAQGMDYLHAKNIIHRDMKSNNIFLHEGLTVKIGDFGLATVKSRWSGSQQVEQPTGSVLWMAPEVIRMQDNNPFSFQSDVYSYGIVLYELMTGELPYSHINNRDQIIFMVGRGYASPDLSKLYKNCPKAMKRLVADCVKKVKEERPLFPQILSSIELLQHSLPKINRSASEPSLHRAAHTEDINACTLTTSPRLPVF
Sequence of human BRAF (P15056 whole entry): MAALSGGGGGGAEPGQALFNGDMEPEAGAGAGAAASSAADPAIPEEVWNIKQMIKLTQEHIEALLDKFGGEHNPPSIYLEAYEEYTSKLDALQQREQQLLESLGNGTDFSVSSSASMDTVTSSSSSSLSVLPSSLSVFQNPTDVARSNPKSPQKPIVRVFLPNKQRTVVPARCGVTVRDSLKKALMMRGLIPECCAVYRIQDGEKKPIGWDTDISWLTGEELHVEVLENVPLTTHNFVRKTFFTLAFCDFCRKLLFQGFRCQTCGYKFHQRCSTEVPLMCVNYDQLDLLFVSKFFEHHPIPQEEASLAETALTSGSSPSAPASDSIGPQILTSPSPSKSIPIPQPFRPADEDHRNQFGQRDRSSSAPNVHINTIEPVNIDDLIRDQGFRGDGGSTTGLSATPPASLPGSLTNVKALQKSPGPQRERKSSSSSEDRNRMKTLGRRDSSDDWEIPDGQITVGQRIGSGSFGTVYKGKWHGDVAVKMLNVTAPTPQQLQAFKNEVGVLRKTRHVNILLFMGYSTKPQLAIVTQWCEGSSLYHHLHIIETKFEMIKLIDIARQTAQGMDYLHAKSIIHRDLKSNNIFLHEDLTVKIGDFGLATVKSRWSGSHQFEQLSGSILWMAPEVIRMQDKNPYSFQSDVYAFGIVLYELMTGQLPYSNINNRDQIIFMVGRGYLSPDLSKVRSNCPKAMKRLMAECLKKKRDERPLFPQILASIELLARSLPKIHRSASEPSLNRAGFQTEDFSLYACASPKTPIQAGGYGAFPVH

Row | IC50 [1] | IC50 [2] | Compound
1 | 0.1 to 1 µM | < 0.01 µM | Cc1cc(F)c(NC(=O)N2CCNC(C(F)(F)F)C2)cc1-c1cc(OCCO)nc(N2CCOCC2)c1 (racemic) [Example 7, (RS)-N-(2-fluoro-5-(2-(2-hydroxyethoxy)-6-morpholinopyridin-4-yl)-4-methylphenyl)-3-(trifluoromethyl)piperazine-1-carboxamide]
2 | 0.01 to 0.1 µM | < 0.01 µM | Cc1cc(F)c(NC(=O)N2CC[C@H](C(F)(F)F)C2)cc1-c1cc(OCCO)nc(N2CCOCC2)c1 [Example 2, (S)-N-(2-fluoro-5-(2-(2-hydroxyethoxy)-6-morpholinopyridin-4-yl)-4-methylphenyl)-3-(trifluoromethyl)pyrrolidine-1-carboxamide]
3 | 0.01 to 0.1 µM | < 0.01 µM | Cc1cc(F)c(NC(=O)N2CCCC(C(F)(F)F)C2)cc1-c1cc(OCCO)nc(N2CCOCC2)c1 (racemic) [Example 4, (RS)-N-(2-fluoro-5-(2-(2-hydroxyethoxy)-6-morpholinopyridin-4-yl)-4-methylphenyl)-3-(trifluoromethyl)piperidine-1-carboxamide]
4 | 0.01 to 0.1 µM | < 0.01 µM | Cc1cc(F)c(NC(=O)N2CCCC(C(C)(C)C)C2)cc1-c1cc(OCCO)nc(N2CCOCC2)c1 (racemic) [Example 8, (RS)-3-(tert-butyl)-N-(2-fluoro-5-(2-(2-hydroxyethoxy)-6-morpholinopyridin-4-yl)-4-methylphenyl)piperidine-1-carboxamide]
5 | 0.01 to 0.1 µM | < 0.01 µM | Cc1cc(F)c(NC(=O)N2CCC(C(F)(F)F)C2)cc1-c1cc(OCCO)nc(N2CCOCC2)c1 (racemic) [Example 3, (RS)-N-(2-fluoro-5-(2-(2-hydroxyethoxy)-6-morpholinopyridin-4-yl)-4-methylphenyl)-3-(trifluoromethyl)pyrrolidine-1-carboxamide]
6 | 0.01 to 0.1 µM | < 0.01 µM | Cc1cc(F)c(NC(=O)NCCC(C)(C)C)cc1-c1cc(OCCO)nc(N2CCOCC2)c1 [Example 6, 1-(3,3-dimethylbutyl)-3-(2-fluoro-5-(2-(2-hydroxyethoxy)-6-morpholinopyridin-4-yl)-4-methylphenyl)urea]
7 | 0.1 to 1 µM | 0.01 to 0.1 µM | Cc1cc(F)c(NC(=O)N2CCNC(C(C)(C)C)C2)cc1-c1cc(OCCO)nc(N2CCOCC2)c1 (racemic) [Example 11, (RS)-3-(tert-butyl)-N-(2-fluoro-5-(2-(2-hydroxyethoxy)-6-morpholinopyridin-4-yl)-4-methylphenyl)piperazine-1-carboxamide]
